Test results: patent US5604234A, “Substituted thiol macrolactam immunomodulators” (Abbott Laboratories, priority 1995, dated 1997)

What follows are molecules tested on human mixed lymphocyte reaction (MLR) (assay: human mixed lymphocyte reaction (MLR), serum free variation). Conditions: Homo sapiens, Lymphocyte, serum-free medium AIM V, Table 3.
Assay type: cell-based
Method: In vitro Assay of Biological Activity (Serum Free MLR)
The in viitro immunosuppressant activity of the compounds of the present invention can also be determined using a variation of the human mixed lymphocyte reaction (MLR) assay described by Kino, T. et al. in Transplantation Proceedings, XIX(5):36-39, Suppl. 6 (1987). In this assay, the cell culture was performed in a serum-free medium, AIM V (GibcoBRL Life Technologies, Grand Island, N.Y.), instead of the usual RPMI 1640 plus 10% heat-inactivated fetal bovine serum medium. The final cell concentrations of the responder and stimulator peripheral blood mononuclear cells were, respectively, 5×10^5/mL and 2×10^6/mL of cells pooled from four donors.

Row | Compound | IC50 [nM]
1 | CCNC(=O)S[C@H]1CC[C@@H](/C=C(\C)[C@H]2OC(=O)[C@@H]3CCCCN3C(=O)C(=O)[C@]3(O)O[C@H]([C@@H](OC)C[C@@H](C)C/C(C)=C/[C@@H](CC)C(=O)C[C@H](O)[C@H]2C)[C@@H](OC)C[C@H]3C)C[C@H]1OC [Example 91] | 0.09
2 | CC[C@@H]1/C=C(\C)C[C@H](C)C[C@H](OC)[C@H]2O[C@@](O)(C(=O)C(=O)N3CCCC[C@H]3C(=O)O[C@H](/C(C)=C/[C@@H]3CC[C@H]([S+]([O-])CC(=O)O)[C@H](OC)C3)[C@H](C)[C@@H](O)CC1=O)[C@H](C)C[C@@H]2OC (some centres unmarked) [Example 74] | 57.7
3 | CC[C@@H]1/C=C(\C)C[C@H](C)C[C@H](OC)[C@H]2O[C@@](O)(C(=O)C(=O)N3CCCC[C@H]3C(=O)O[C@H](/C(C)=C/[C@@H]3CC[C@H](SC(=O)NC(C)C)[C@H](OC)C3)[C@H](C)[C@@H](O)CC1=O)[C@H](C)C[C@@H]2OC [Example 93] | 0.3
4 | CCC1C=C(C)CC(C)CC(OC)C2OC(O)(C(=O)C(=O)N3CCCCC3C(=O)OC(C(C)=CC3CCC(SCC(=O)N(C)O)C(OC)C3)C(C)C(O)CC1=O)C(C)CC2OC (centres unmarked) [Example 39] | 4.8
5 | CCOC(=O)CCS(=O)(=O)[C@H]1CC[C@@H](/C=C(\C)[C@H]2OC(=O)[C@@H]3CCCCN3C(=O)C(=O)[C@]3(O)O[C@H]([C@@H](OC)C[C@@H](C)C/C(C)=C/[C@@H](CC)C(=O)C[C@H](O)[C@H]2C)[C@@H](OC)C[C@H]3C)C[C@H]1OC [Example 61] | 2.5
6 | CCC1C=C(C)CC(C)CC(OC)C2OC(O)(C(=O)C(=O)N3CCCCC3C(=O)OC(C(C)=CC3CCC(SCCC(=O)OCCN(C)C)C(OC)C3)C(C)C(O)CC1=O)C(C)CC2OC (centres unmarked) [Example 16] | 2.2
7 | CC[C@@H]1/C=C(\C)C[C@H](C)C[C@H](OC)[C@H]2O[C@@](O)(C(=O)C(=O)N3CCCC[C@H]3C(=O)O[C@H](/C(C)=C/[C@@H]3CC[C@H](S(=O)(=O)CC(=O)OC)[C@H](OC)C3)[C@H](C)[C@@H](O)CC1=O)[C@H](C)C[C@@H]2OC [Example 57] | 2
8 | CC[C@@H]1/C=C(\C)C[C@H](C)C[C@H](OC)[C@H]2O[C@@](O)(C(=O)C(=O)N3CCCC[C@H]3C(=O)O[C@H](/C(C)=C/[C@@H]3CC[C@H](SC(=O)c4ccccc4NC(C)=O)[C@H](OC)C3)[C@H](C)[C@@H](O)CC1=O)[C@H](C)C[C@@H]2OC [Example 118] | 2.5
9 | CCC1C=C(C)CC(C)CC(OC)C2OC(O)(C(=O)C(=O)N3CCCCC3C(=O)OC(C(C)=CC3CCC(SCC(C)C(=O)OC)C(OC)C3)C(C)C(O)CC1=O)C(C)CC2OC (centres unmarked) [Example 40] | 14.9
10 | CC[C@@H]1/C=C(\C)C[C@H](C)C[C@H](OC)[C@H]2O[C@@](O)(C(=O)C(=O)N3CCCC[C@H]3C(=O)O[C@H](/C(C)=C/[C@@H]3CC[C@H](SC(=O)C(=O)OC)[C@H](OC)C3)[C@H](C)[C@@H](O)CC1=O)[C@H](C)C[C@@H]2OC [Example 111] | 4.1
11 | CC[C@@H]1/C=C(\C)C[C@H](C)C[C@H](OC)[C@H]2O[C@@](O)(C(=O)C(=O)N3CCCC[C@H]3C(=O)O[C@H](/C(C)=C/[C@@H]3CC[C@H](S(=O)(=O)CC(=O)OC(C)(C)C)[C@H](OC)C3)[C@H](C)[C@@H](O)CC1=O)[C@H](C)C[C@@H]2OC [Example 58] | 2.1
12 | CCC1C=C(C)CC(C)CC(OC)C2OC(O)(C(=O)C(=O)N3CCCCC3C(=O)OC(C(C)=CC3CCC(SCCC(=O)OC4CCCCC4)C(OC)C3)C(C)C(O)CC1=O)C(C)CC2OC (centres unmarked) [Example 14] | 6.2
13 | CC[C@@H]1/C=C(\C)C[C@H](C)C[C@H](OC)[C@H]2O[C@@](O)(C(=O)C(=O)N3CCCC[C@H]3C(=O)O[C@H](/C(C)=C/[C@@H]3CC[C@H](S(=O)(=O)CCO)[C@H](OC)C3)[C@H](C)[C@@H](O)CC1=O)[C@H](C)C[C@@H]2OC [Example 51] | 0.17
14 | CC[C@@H]1/C=C(\C)C[C@H](C)C[C@H](OC)[C@H]2O[C@@](O)(C(=O)C(=O)N3CCCC[C@H]3C(=O)O[C@H](/C(C)=C/[C@@H]3CC[C@H](SC(=O)CNC(C)=O)[C@H](OC)C3)[C@H](C)[C@@H](O)CC1=O)[C@H](C)C[C@@H]2OC [Example 115] | 0.02
